Assays:
human PGC-1α promoter = assay: Modulation of the human PGC-1α promoter activity (luciferase reporter, Hep G2); type: cell-based; conditions: Hep G2 transfected with luciferase under human PGC-1α promoter; peptide 0.5 mg/mL, 24 hours; normalized to carrier = 100%
Protocol: The modulation capacity of the promoter of human PGC-1α is evaluated by the peptides in the invention in the hepatocellular Hep G2 carcinoma cell line transfected with the luciferase gene under the regulation of the human PGC-1α promoter. The cells are seeded at a density of 20,000 cells/25 cm^2 plate) and incubated for 24 hours in RPMI-1640 complete medium, after which the peptides of the invention are added at 0.5 mg/mL and are incubated for another 24 hours. The RPMI-1640 complete medium (carrier) is used as a negative control. The measurement of the promoter's activity is carried out using the Steady-Glo® Luciferase Assay System (PROMEGA) kit following the manufacturer's instructions. The luminescence values are read on a luminometer […] and the activity of the promoter is determined, which is normalized with regards to the values of the negative control.

[1] = test system: subcutaneous human pre-adipocytes; assay: Accumulation of lipids in subcutaneous human pre-adipocytes (AdipoRed); type: cell-based; conditions: peptide 0.1 mg/mL in PDM-2, 10 days, PGM-2 = 0%, PDM-2 = 100%
Protocol: The levels of accumulation of lipids in subcutaneous human pre-adipocytes were quantified using the AdipoRed™ (Lonza) reagent. 100,000 cells were cultivated per well in PGM™-2 medium at a final volume of 100 μL. After 24 hours, the differentiation from pre-adipocytes to mature adipocytes was induced changing the medium to PDM-2 in the presence of the different peptides at 0.1 mg/mL. After 10 days of treatment with the peptides in differentiation medium, the quantity of intracellular lipids was evaluated using the AdipoRed™ reagent following the manufacturer's instructions measuring the fluorescence of the samples (length of the excitation wave 485 nm and emission 535 nm) after adding the AdipoRed™ reagent. The fluorescence values were corrected with regards to the basal fluorescence and were normalized with regards to the maximum differentiation controls (PDM-2 medium, maximum accumulation of lipids) and minimum differentiation (PGM™-2 medium, minimum accumulation of lipids).

PGC-1α gene = assay: Transcription of the PGC-1α gene, quantitative real time PCR in differentiating pre-adipocytes; type: cell-based; conditions: subcutaneous human adipocytes; peptide 0.1 mg/mL in PDM-2, 10 days; PGM-2 = 0%, PDM-2 = 100%
Protocol: The expression levels of the gene PGC-1α are measured by PCR in quantitative real time. A cell line of subcutaneous human pre-adipocytes is incubated in PGM™-2 medium at a density of 100,000 cells/well in a volume of 100 μL for 24 hours. Differentiation is induced by changing the medium to PDM-2 in the presence of the peptides Ac-L-Ser-L-Ile-L-Tyr-L-Val-L-Ala-L-Thr-NH2 (Ac-SEQ ID NO. 1-NH2) and Ac-L-Ser-L-Val-L-Val-L-Val-L-Arg-L-Thr-NH2 (Ac-SEQ ID NO. 2-NH2) at 0.1 mg/mL for 10 days, after which the cells were lysed and the RNA is extracted. The PCR is carried out in quantitative real time using the Taqman® Gene Expression Cells-to-CT (Applied Biosystems) kit according to the manufacturer's instructions and with the appropriate probes (TaqMan® Hs01016719_m1 probe for the PGC-1α gene and Taqman® Hs99999901_s1 probe for the eukaryotic ribosomal subunit 18S, the endogenous control of expression) and the values are normalized with regards to the maximum differentiation controls (PDM-2 medium, maximum quantity of PGC-1α mRNA) and minimal differentiation (PGM™-2 medium, minimum quantity of PGC-1α mRNA).

cellulitis (thigh) = assay: Reduction of cellulitis in volunteers, length of the dermo-hypodermic junction line (ultrasound); type: in vivo, human; conditions: after 21 days of treatment
Source text: 20 Caucasian volunteers between the age of 25 and 45, with healthy skin and affected by cellulitis levels I-III according to the pinch test applied the composition from Example 15 to one thigh and a placebo composition (the same composition from Example 15 without the peptide) to the other thigh, twice a day for 21 days. The length of the dermo-hypodermic junction line was instrumentally assessed using the Ultrasound Scanner Dermascan C® (Cortex Technology, Denmark) at the beginning of the study and at the end of the study (21 days). The measurement of the length of the dermo-hypodermic junction line is related to the formation of cellulitis and skin irregularities [Quatresooz P et al., “Cellulite histopathology and related mechanobiology”, (2006), Int. J. Cosm. Sci., 28, 207-210]. A reduction in the length of the dermo-hypodermic junction line leads to softer and more regular skin, and as such cellulitis will be less visible. The statistical analysis of the evolution of the parameters measured during the study was carried out using the Student's t-test. The statistical significance threshold was established at 5%.

Substance	Activity of the PGC-1α promoter (%) (human PGC-1α promoter)	further results
Ac-L-His-L-Ile-L-Tyr-L-Val-L-Ala-L-Val-NH2 (Ac-HIYVAV-NH2) [Ac-SEQ ID NO. 25-NH2]	76	–
Ac-L-His-L-Ile-L-Tyr-L-Val-L-Arg-L-Thr-NH2 (Ac-HIYVRT-NH2) [Ac-SEQ ID NO. 10-NH2]	115	–
Ac-L-His-L-Ile-L-Tyr-L-Val-L-Arg-L-Val-NH2 (Ac-HIYVRV-NH2) [Ac-SEQ ID NO. 33-NH2]	117	–
Ac-L-His-L-Ile-L-Val-L-Val-Gly-L-Thr-NH2 (Ac-HIVVGT-NH2) [Ac-SEQ ID NO. 21-NH2]	110	% Accumulation of intracellular lipids [1]: 114%
Ac-L-His-L-Ile-L-Val-L-Val-L-Ala-L-Thr-NH2 (Ac-HIVVAT-NH2) [Ac-SEQ ID NO. 6-NH2]	72	–
Ac-L-His-L-Ile-L-Val-L-Val-L-Ala-L-Val-NH2 (Ac-HIVVAV-NH2) [Ac-SEQ ID NO. 29-NH2]	81	–
Ac-L-His-L-Ile-L-Val-L-Val-L-Arg-L-Val-NH2 (Ac-HIVVRV-NH2) [Ac-SEQ ID NO. 37-NH2]	118	–
Ac-L-His-L-Val-L-Tyr-L-Val-Gly-L-Val-NH2 (Ac-HVYVGV-NH2) [Ac-SEQ ID NO. 43-NH2]	75	–
Ac-L-His-L-Val-L-Tyr-L-Val-L-Ala-L-Thr-NH2 (Ac-HVYVAT-NH2) [Ac-SEQ ID NO. 4-NH2]	77	–
Ac-L-His-L-Val-L-Tyr-L-Val-L-Ala-L-Val-NH2 (Ac-HVYVAV-NH2) [Ac-SEQ ID NO. 27-NH2]	42	–
Ac-L-His-L-Val-L-Tyr-L-Val-L-Arg-L-Thr-NH2 (Ac-HVYVRT-NH2) [Ac-SEQ ID NO. 12-NH2]	114	% Accumulation of intracellular lipids [1]: 84%
Ac-L-His-L-Val-L-Tyr-L-Val-L-Arg-L-Val-NH2 (Ac-HVYVRV-NH2) [Ac-SEQ ID NO. 35-NH2]	132	–
Ac-L-His-L-Val-L-Val-L-Val-L-Ala-L-Thr-NH2 (Ac-HVVVAT-NH2) [Ac-SEQ ID NO. 8-NH2]	89	–
Ac-L-His-L-Val-L-Val-L-Val-L-Arg-L-Val-NH2 (Ac-HVVVRV-NH2) [Ac-SEQ ID NO. 39-NH2]	186	–
Ac-L-Ser-L-Ile-L-Tyr-L-Val-Gly-L-Thr-NH2 (Ac-SIYVGT-NH2) [Ac-SEQ ID NO. 18-NH2]	64	–
Ac-L-Ser-L-Ile-L-Tyr-L-Val-Gly-L-Val-NH2 (Ac-SIYVGV-NH2) [Ac-SEQ ID NO. 42-NH2]	64	–
Ac-L-Ser-L-Ile-L-Tyr-L-Val-L-Ala-L-Thr-NH2 (Ac-SIYVAT-NH2) [Ac-SEQ ID NO. 1-NH2]	57	% relative quantity of PGC-1α mRNA (PGC-1α gene): 63%; % Accumulation of intracellular lipids [1]: 33%; effect on the length of the dermo-hypodermic junction line and cellulitis (cellulitis (thigh)): induces a reduction in the length of the dermo-hypodermic junction line
Ac-L-Ser-L-Ile-L-Tyr-L-Val-L-Ala-L-Val-NH2 (Ac-SIYVAV-NH2) [Ac-SEQ ID NO. 26-NH2]	40	–

Substance	Activity of the PGC-1α promoter (%) (human PGC-1α promoter)	further results
Ac-L-Ser-L-Ile-L-Tyr-L-Val-L-Arg-L-Thr-NH2 (Ac-SIYVRT-NH2) [Ac-SEQ ID NO. 11-NH2]	151	% Accumulation of intracellular lipids [1]: 76%
Ac-L-Ser-L-Ile-L-Tyr-L-Val-L-Arg-L-Val-NH2 (Ac-SIYVRV-NH2) [Ac-SEQ ID NO. 34-NH2]	134	–
Ac-L-Ser-L-Ile-L-Val-L-Val-Gly-L-Thr-NH2 (Ac-SIVVGT-NH2) [Ac-SEQ ID NO. 22-NH2]	63	% Accumulation of intracellular lipids [1]: 43%
Ac-L-Ser-L-Ile-L-Val-L-Val-Gly-L-Val-NH2 (Ac-SIVVGV-NH2) [Ac-SEQ ID NO. 46-NH2]	78	% Accumulation of intracellular lipids [1]: 38%
Ac-L-Ser-L-Ile-L-Val-L-Val-L-Ala-L-Thr-NH2 (Ac-SIVVAT-NH2) [Ac-SEQ ID NO. 7-NH2]	145	–
Ac-L-Ser-L-Ile-L-Val-L-Val-L-Ala-L-Val-NH2 (Ac-SIVVAV-NH2) [Ac-SEQ ID NO. 30-NH2]	120	–
Ac-L-Ser-L-Ile-L-Val-L-Val-L-Arg-L-Thr-NH2 (Ac-SIVVRT-NH2) [Ac-SEQ ID NO. 15-NH2]	150	–
Ac-L-Ser-L-Ile-L-Val-L-Val-L-Arg-L-Val-NH2 (Ac-SIVVRV-NH2) [Ac-SEQ ID NO. 38-NH2]	180	–
Ac-L-Ser-L-Val-L-Tyr-L-Val-Gly-L-Thr-NH2 (Ac-SVYVGT-NH2) [Ac-SEQ ID NO. 20-NH2]	76	–
Ac-L-Ser-L-Val-L-Tyr-L-Val-Gly-L-Val-NH2 (Ac-SVYVGV-NH2) [Ac-SEQ ID NO. 44-NH2]	67	–
Ac-L-Ser-L-Val-L-Tyr-L-Val-L-Ala-L-Thr-NH2 (Ac-SVYVAT-NH2) [Ac-SEQ ID NO. 5-NH2]	69	% Accumulation of intracellular lipids [1]: 48%
Ac-L-Ser-L-Val-L-Tyr-L-Val-L-Arg-L-Thr-NH2 (Ac-SVYVRT-NH2) [Ac-SEQ ID NO. 13-NH2]	131	% Accumulation of intracellular lipids [1]: 79%
Ac-L-Ser-L-Val-L-Tyr-L-Val-L-Arg-L-Val-NH2 (Ac-SVYVRV-NH2) [Ac-SEQ ID NO. 36-NH2]	136	–
Ac-L-Ser-L-Val-L-Val-L-Val-Gly-L-Thr-NH2 (Ac-SVVVGT-NH2) [Ac-SEQ ID NO. 24-NH2]	90	–
Ac-L-Ser-L-Val-L-Val-L-Val-Gly-L-Val-NH2 (Ac-SVVVGV-NH2) [Ac-SEQ ID NO. 48-NH2]	75	% Accumulation of intracellular lipids [1]: 37%
Ac-L-Ser-L-Val-L-Val-L-Val-L-Ala-L-Thr-NH2 (Ac-SVVVAT-NH2) [Ac-SEQ ID NO. 9-NH2]	62	–
Ac-L-Ser-L-Val-L-Val-L-Val-L-Ala-L-Val-NH2 (Ac-SVVVAV-NH2) [Ac-SEQ ID NO. 32-NH2]	82	–
Ac-L-Ser-L-Val-L-Val-L-Val-L-Arg-L-Val-NH2 (Ac-SVVVRV-NH2) [Ac-SEQ ID NO. 40-NH2]	141	–
